Legend:
Type in all cases: in vitro ADME
CYP3A4 = CYP3A4 (Homo sapiens, UniProt P08684); experiment: Mechanism-based (time- and concentration-dependent) inactivation of CYP3A4 in human liver microsomes; details: CYP3A4-mediated midazolam 1′-hydroxylation
Method: The microsomes (1 mg/mL) were pre-incubated with various concentrations of aschantin in 50 mM potassium phosphate buffer (pH 7.4) in the presence of NADPH. Aliquots (10 µL) of the incubated mixtures were withdrawn at 5, 10, 15, and 20 min after incubation commenced and added to other tubes containing the CYP substrates (2 µM amodiaquine for CYP2C8, 10 µM diclofenac for CYP2C9, 100 µM [S]-mephenytoin for CYP2C19, or 2 µM midazolam for CYP3A4), 1 mM NADPH, 50 mM potassium phosphate buffer (pH 7.4), and 10 mM MgCl2, in 90 µL reaction mixtures. […] Aliquots (5 µL) of the diluted supernatants were analyzed by LC-MS/MS, as described above.

UGT1A4 = target: T1, UGT1A4 (Homo sapiens, UniProt P22310); experiment: UGT1A4-catalyzed trifluoperazine N-glucuronidation inhibition in pooled human liver microsomes
T1 construct: using pooled human liver microsomes incubated with the cocktail of UGT substrates; tissue Corning Life Sciences 452161; host or cells: pooled human liver microsomes
T1 sequence (P22310 29-534): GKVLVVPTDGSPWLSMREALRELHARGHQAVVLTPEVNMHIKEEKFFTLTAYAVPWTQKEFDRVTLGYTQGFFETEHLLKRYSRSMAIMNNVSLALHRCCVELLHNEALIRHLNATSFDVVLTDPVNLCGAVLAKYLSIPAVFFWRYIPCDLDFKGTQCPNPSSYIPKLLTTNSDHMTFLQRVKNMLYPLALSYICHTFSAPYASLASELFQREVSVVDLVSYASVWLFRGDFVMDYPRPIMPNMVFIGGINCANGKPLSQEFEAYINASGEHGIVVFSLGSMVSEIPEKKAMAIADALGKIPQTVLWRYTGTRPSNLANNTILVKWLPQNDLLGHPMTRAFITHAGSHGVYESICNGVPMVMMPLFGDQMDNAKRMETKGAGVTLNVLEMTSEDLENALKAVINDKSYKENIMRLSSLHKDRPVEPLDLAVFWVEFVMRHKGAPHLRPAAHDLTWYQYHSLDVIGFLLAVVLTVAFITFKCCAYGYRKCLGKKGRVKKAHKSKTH
Method: (§1) The extents of aschantin on UGT1A1, UGT1A3, UGT1A4, UGT1A6, UGT1A9, and UGT2B7 were evaluated by LC-MS/MS, using pooled human liver microsomes incubated with the cocktail of UGT substrates. The method was modified from that of Joo et al..
(§2) The metabolites formed from the six UGT cocktail substrates were simultaneously measured using the LC-MS/MS method. […] The mass spectrometer was equipped with an ESI source and was operated in both positive and negative ion modes. […] Each metabolite was quantified via SRM in the negative ion (chenodeoxycholic acid 24-acyl-β-glucuronide, 567.2 > 391.0; mycophenolic acid glucuronide, 495.2 > 318.9; propofol glucuronide, 353.3 > 177.1) and positive ion (SN-38 glucuronide, 569.0 > 393.0; trifluoperazine glucuronide, 584.2 > 408.1; N-acetylserotonin-β-D-glucuronide, 395.2 > 219.0; naloxone 3-β-D-glucuronide, 504.0 > 310.0; meloxicam, 352.0 > 115.1) modes.

UGT1A9 = target: T2, UGT1A9 (Homo sapiens, UniProt O60656); experiment: UGT1A9-catalyzed mycophenolic acid glucuronidation inhibition in pooled human liver microsomes; details: 0.2 µM mycophenolic acid
T2 construct: using pooled human liver microsomes incubated with the cocktail of UGT substrates; tissue Corning Life Sciences 452161; host or cells: pooled human liver microsomes
T2 sequence (O60656 26-530): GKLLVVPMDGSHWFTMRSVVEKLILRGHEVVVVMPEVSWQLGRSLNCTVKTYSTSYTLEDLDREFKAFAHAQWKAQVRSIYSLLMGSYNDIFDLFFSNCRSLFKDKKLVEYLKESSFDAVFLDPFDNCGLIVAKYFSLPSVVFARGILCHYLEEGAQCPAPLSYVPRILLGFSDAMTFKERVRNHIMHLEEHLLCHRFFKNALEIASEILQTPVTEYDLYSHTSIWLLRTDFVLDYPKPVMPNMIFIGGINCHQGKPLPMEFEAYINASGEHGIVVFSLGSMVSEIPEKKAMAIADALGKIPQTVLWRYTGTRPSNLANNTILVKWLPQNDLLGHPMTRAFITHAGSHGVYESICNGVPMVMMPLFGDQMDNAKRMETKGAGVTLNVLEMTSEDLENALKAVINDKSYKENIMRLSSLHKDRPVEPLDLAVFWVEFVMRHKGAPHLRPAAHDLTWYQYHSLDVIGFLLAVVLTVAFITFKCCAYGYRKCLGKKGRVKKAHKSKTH
Method: as §1, §2

UGT2B7 = target: T3, UGT2B7 (Homo sapiens, UniProt P16662); experiment: UGT2B7-catalyzed naloxone 3-β-D-glucuronidation inhibition in pooled human liver microsomes
T3 construct: using pooled human liver microsomes incubated with the cocktail of UGT substrates; tissue Corning Life Sciences 452161; host or cells: pooled human liver microsomes
T3 sequence (P16662 24-529): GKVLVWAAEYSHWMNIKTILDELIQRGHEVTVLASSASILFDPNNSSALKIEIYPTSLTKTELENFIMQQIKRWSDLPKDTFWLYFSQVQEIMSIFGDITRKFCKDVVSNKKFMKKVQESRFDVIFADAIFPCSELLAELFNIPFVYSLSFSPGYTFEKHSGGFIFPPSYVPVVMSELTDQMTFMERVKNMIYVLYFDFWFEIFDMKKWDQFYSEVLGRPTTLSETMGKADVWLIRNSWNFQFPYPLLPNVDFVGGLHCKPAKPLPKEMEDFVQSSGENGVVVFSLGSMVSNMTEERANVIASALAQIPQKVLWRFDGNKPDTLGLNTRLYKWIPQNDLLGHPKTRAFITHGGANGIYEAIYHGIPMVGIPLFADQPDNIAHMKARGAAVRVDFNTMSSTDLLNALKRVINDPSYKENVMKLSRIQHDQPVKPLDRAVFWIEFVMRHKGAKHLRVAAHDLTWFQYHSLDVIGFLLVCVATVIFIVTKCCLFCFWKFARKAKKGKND
Method: as §1, §2

[1] = aschantin at 200 µM, human liver microsomes

Sequence of CYP3A4 (P08684 2-503): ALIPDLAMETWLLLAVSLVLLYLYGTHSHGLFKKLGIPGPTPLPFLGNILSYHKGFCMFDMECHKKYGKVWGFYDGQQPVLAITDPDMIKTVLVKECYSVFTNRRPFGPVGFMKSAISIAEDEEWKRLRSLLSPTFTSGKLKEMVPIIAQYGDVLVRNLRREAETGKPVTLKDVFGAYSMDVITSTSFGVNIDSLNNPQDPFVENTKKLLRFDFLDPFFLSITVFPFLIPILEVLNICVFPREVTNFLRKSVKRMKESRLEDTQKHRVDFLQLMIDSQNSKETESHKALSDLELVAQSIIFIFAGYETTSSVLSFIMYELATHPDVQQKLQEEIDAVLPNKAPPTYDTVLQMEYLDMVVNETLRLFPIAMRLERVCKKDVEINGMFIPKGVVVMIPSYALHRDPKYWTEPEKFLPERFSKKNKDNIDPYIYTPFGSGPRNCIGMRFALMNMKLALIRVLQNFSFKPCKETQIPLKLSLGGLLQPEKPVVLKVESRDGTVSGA

- Ki (CYP3A4; read-out: Ki (apparent)): 12.6 µM
- kinact (CYP3A4; pH 7.4, probe midazolam (2 µM)): 0.00103 s⁻¹
- IC50 (UGT1A4; UGT1A4-catalyzed trifluoperazine N-glucuronidation, 0.5 µM trifluoperazine, pooled human liver microsomes): > 200 µM
- inhibition of UGT1A4-catalyzed trifluoperazine N-glucuronidation (UGT1A4; [1]): not inhibited
- IC50 (UGT1A9): 71 µM
- IC50 (UGT2B7; UGT2B7-catalyzed naloxone 3-β-D-glucuronidation, 1 µM naloxone, pooled human liver microsomes): > 200 µM
- inhibition of UGT2B7-catalyzed naloxone 3-β-D-glucuronidation (UGT2B7; [1]): not inhibited
Structure (SMILES): COc1cc([C@H]2OC[C@H]3[C@@H]2CO[C@@H]3c2ccc3c(c2)OCO3)cc(OC)c1OC [Aschantin]

— paper PMC6273138, “Inhibitory Effects of Aschantin on Cytochrome P450 and Uridine 5′-diphospho-glucuronosyltransferase Enzyme Activities in Human Liver Microsomes” (Molecules, 2016)
